The conditions of data set [1]: 278.15 K, 101.3 kPa, Liquid.
Data set [2] is described as follows: mn = molality of the nth substance listed, in mol/kg. As to conditions: 278.15 K, 101.3 kPa, Liquid, m2 = 0; for speed of sound: Frequency=2 MHz, Linear variable-path acoustic interferometer; for mass density: Pycnometric method.

Numbers after ± are expanded uncertainties.

We go through four compounds from the NIST ThermoML archive (doi:10.1016/j.jct.2015.09.020).

As usually defined, the speed of sound is the propagation velocity of pressure waves in the medium. What is called mass density is the mass of a sample divided by its volume. As for `O` [water], the speed of sound in data set [1] (Frequency=2 MHz, Linear variable-path acoustic interferometer) is given as 1426.2 ± 1.7 m/s. Also, the mass density in data set [1] (Pycnometric method) was determined as 999.96 ± 0.28 kg/m3.
For the compound `O` [water] + Cl.NCC(=O)O, in data set [2], the speed of sound is 1426.2 ± 1.7 m/s and the mass density was determined as 999.96 ± 0.28 kg/m3.
For the compound `O` [water] + NCCCC(=O)O, in data set [2], the speed of sound was 1426.2 ± 1.7 m/s and the mass density was 999.96 ± 0.28 kg/m3.
In the same order, the values of `O` [water] + N[C@@H](CCC(=O)[O-])C(=O)O.[Na+] are 1426.2 ± 1.7 m/s and 999.96 ± 0.29 kg/m3.
